In general, solubility refers to the concentration that dissolves in the medium under given conditions. The low end stands for a poorly soluble substance, the high end for a readily soluble substance.

In brackets after ≈: the same amount, converted by molar mass. Where only a bound is given, the exact number is not on record here.

Holding throughout (assay type): physicochemical
Data set [1] can be described thus: Solubility comparison, saturated solutions in SGF, FeSSIF, FaSSIF and water, by HPLC. The following applies: for Solubility FeSSIF: pH5.0 FeSSIF; for Solubility FaSSIF: pH6.5 FaSSIF. The protocol: Crystalline Form A of the present disclosure and Form I disclosed in CN101910156A are prepared into saturated solution in SGF (Simulated gastric fluids), pH5.0 FeSSIF (Fed state simulated intestinal fluids), pH6.5 FaSSIF (Fasted state simulated intestinal fluids) and water. Concentrations in the saturation solutions were tested after 1 hour, 4 hours and 24 hours by HPLC.

The nature of data set [2]: Hygroscopicity assessment by dynamic vapor sorption (DVS). The settings on record: for Weight Gain under 80% Relative Humidity: DVS. As to the method:
Dynamic vapor sorption (DVS) data in the present disclosure was acquired by a SMS (Surface Measurement Systems Ltd.) DVS Intrinsic. About 10 mg of crystalline Form A of present disclosure was used for DVS test. The parameters of the dynamic vapor sorption (DVS) method of the present disclosure were as follows:
Gas and flow rate: N2, 200 mL/min
RH range: 0% RH to 95% RH
Maximum equilibrate time: 180 min
Humidity gradient: 10% (0% RH-90% RH), 5% (90% RH-95% RH).
About 12.2 mg of crystalline Form A of the present disclosure was used for hygroscopicity testing using dynamic vapor sorption (DVS), crystalline Form A underwent a 0-95%-0 cycle of the relative humidity (RH) change. 4. The XRPD patterns of crystalline Form A before and after hygroscopicity assessment are depicted in FIG. 6. The pattern above is before DVS and the below one is after DVS.
About hygroscopicity characterization description and definition of hygroscopicity (Chinese Pharmacopoeia 2010 edition appendix XIV Drug hygroscopic test guidelines, test at 25° C.+/−1° C., 80% Relative Humidity) • deliquescent: sufficient water is absorbed to form a liquid. • very hygroscopic: increase in mass is equal to or greater than 15%. • hygroscopic: increase in mass is less than 15% and equal to or greater than 2%. • slightly hygroscopic: increase in mass is less than 2% and equal to or greater than 0.2%. • no or almost no hygroscopic: increase in mass is less than 0.2%.

A short description of data set [3]: Stability assessment on storage (XRPD and purity). The protocol: The crystalline Form A of the compound of formula (I) of the present disclosure was stored under 25° C./60% RH and 40° C./75% RH for 90 days. XRPD and purity of the samples were collected after storing for 15 days, 30 days and 90 days. […] The XRPD results of crystalline Form A before and after storing under 25° C./60% RH and 40° C./75% RH for 90 days are depicted in FIG. 7 (FIG. 7: the top, middle and bottom are initial crystalline Form A, crystalline Form A after storing at 25° C./60% RH and 40° C./75% RH for 90 days respectively).

Data set [4] can be described thus: Solubility comparison, saturated solutions in SGF, FeSSIF, FaSSIF and water, by HPLC. The following applies: FaSSIF, FeSSIF and H2O after 1 hour, 2 hours and 24 hours.

Regarding `Cc1ccc(NC(=O)C2(c3ccc4c(c3)OC(F)(F)O4)CC2)nc1-c1cccc(C(=O)O)c1` [Form I, 3-(6-(1-(2,2-difluorobenzo [d] [1,3]dioxol-5-yl)cyclopropanecarboxamido)-3-methylpyridin-2-yl) benzoic acid, reference compound], the “Solubility H2O” value amounted to 2.2 µg/mL (≈ 4.86 µM) in data set [1] (H2O, 1 hour); 6.7 µg/mL (≈ 14.8 µM) in data set [1] (H2O, 4 hours); 16 µg/mL (≈ 35.4 µM) in data set [1] (H2O, 24 hours). The “Solubility SGF” value in data set [1] (1 hour) is 0.4 µg/mL (≈ 0.884 µM); in data set [1] (4 hours), less than 0.22 µg/mL; in data set [1] (24 hours), less than 0.21 µg/mL. For the same molecule, the “Solubility FeSSIF” value in data set [1] (1 hour) stood at 5.5 µg/mL (≈ 12.2 µM); in data set [1] (4 hours), 5.9 µg/mL (≈ 13 µM); in data set [1] (24 hours), 5.5 µg/mL (≈ 12.2 µM). The “Solubility FaSSIF” value was 2.3 µg/mL (≈ 5.08 µM) in data set [1] (1 hour), 1.5 µg/mL (≈ 3.32 µM) in data set [1] (4 hours) and 0.9 µg/mL (≈ 1.99 µM) in data set [1] (24 hours).
Take `Cc1ccc(NC(=O)C2(c3ccc4c(c3)OC(F)(F)O4)CC2)nc1-c1cccc(C(=O)O)c1` [Form A, 3-(6-(1-(2,2-difluorobenzo [d] [1,3]dioxol-5-yl)cyclopropanecarboxamido)-3-methylpyridin-2-yl) benzoic acid]: the “Crystalline form after DVS test (XRPD before and after)” value in data set [2] (0-95%-0 RH cycle) was “didn't change”. Besides, the Hygroscopicity class result in data set [2] (Chinese Pharmacopoeia 2010 criteria, 25° C., 80% RH) was “non-hygroscopic or almost non-hygroscopic”. For the same molecule, the “Weight Gain under 80% Relative Humidity” value in data set [2] (25° C., 80% RH, listed as Crystalline Form A of the compound of formula (I)) turned out to be 0.10%; in data set [2] (25° C., 80% RH, listed as crystalline Form A of the compound of formula (I)), 0.10%. In addition, the “Stability (Purity %) 25° C./60% RH” value amounted to 99.94% in data set [3] (25° C./60% RH, 15 days); 99.90% in data set [3] (25° C./60% RH, 30 days); 99.93% in data set [3] (25° C./60% RH, 90 days); 99.82% in data set [3] (25° C./60% RH, Initial). Also, the “Stability under long-term stability condition” value in data set [3] (25° C./60% RH, 90 days, XRPD and purity) is “stable”. Also, the “Stability (Purity %) 40° C./75% RH” value stood at 99.94% in data set [3] (40° C./75% RH, 15 days); 99.94% in data set [3] (40° C./75% RH, 30 days); 99.94% in data set [3] (40° C./75% RH, 90 days); 99.82% in data set [3] (40° C./75% RH, Initial). Besides, in data set [3] (40° C./75% RH, 90 days, XRPD and purity), the “Stability under accelerated stability condition” value was “stable”. Further, the “Solubility H2O” value in data set [1] (H2O, 1 hour) is 8.6 µg/mL (≈ 19 µM); in data set [1] (H2O, 4 hours) it was 16 µg/mL (≈ 35.4 µM). Also, the “Solubility SGF” value in data set [1] (1 hour) was found to be 0.9 µg/mL (≈ 1.99 µM); in data set [1] (4 hours) it was 1.9 µg/mL (≈ 4.2 µM); in data set [1] (24 hours) it was 2 µg/mL (≈ 4.42 µM). The “Solubility FeSSIF” value worked out at 17 µg/mL (≈ 37.6 µM) in data set [1] (1 hour), 18 µg/mL (≈ 39.8 µM) in data set [1] (4 hours) and 20 µg/mL (≈ 44.2 µM) in data set [1] (24 hours). For the same molecule, the “Solubility FaSSIF” value in data set [1] (1 hour) turned out to be 8.2 µg/mL (≈ 18.1 µM); in data set [1] (4 hours) it was 11 µg/mL (≈ 24.3 µM); in data set [1] (24 hours), 9.5 µg/mL (≈ 21 µM). Further, the solubility at 24 h in data set [1] (water, thermodynamic from solid, H2O, 24 hours) came to 25 µg/mL (≈ 55.3 µM). Moreover, the “Solubility compared with Form I disclosed in CN101910156A” value in data set [4] is “higher”.

(Values after patent publication US10308641B2, “Crystal form of 3-(6-(1-(2,2-difluorobenzo[d][1,3]dioxole-5-yl)cyclopropane formamido)-3-methylpyridine-2-yl)benzoic acid and preparation method thereof” (CRYSTAL PHARMATECH CO., LTD., priority 2015, dated 2019).)
